In PubChem BioAssay (NCI) one finds TGI and GI50 data, which are given here for 9 compounds.

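Growth conditions: 96-well plates. Treatment: test compound, 48 hours, 5 concentrations. Analysis: linear interpolation between bracketing concentrations; unreached endpoints set to highest concentration. Abbreviation: GI50, concentration required for 50% inhibition of growth. TGI marks complete inhibition of growth.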

For the first test, the system named is OVCAR-8 ovarian. Description: NCI anticancer screen, dose series, 48 h.
`CCc1cccc(CC)c1NC(=O)/C(Cl)=C(/Cl)C(=O)O` registered a TGI of 33.3 µM.
Take `Cc1cc(Br)c(NC(=O)c2c(-c3c(Cl)cccc3Cl)noc2C)c(Br)c1`: the GI50 is above 100 µM and the TGI is above 100 µM.
`OCCCCC#Cc1ccccc1C#Cc1cccc(C(F)(F)F)c1`: the GI50 is 18.8 µM and the TGI stood at 35.7 µM.
On to `CC(C)Cc1ccc(C(C)/C=C2\CCC(CN(C)C)C2=O)cc1` (stereo not given), for which the TGI came to 19 µM.
`COc1cc(/C=C/c2csnn2)cc(OC)c1OC`: the TGI was above 100 µM.
For the compound `CC(C)[C@@H]1CC[C@]2(CO2)[C@@H]2C(=O)OCC(C(=O)O)=C[C@H]21`, the GI50 is 0.351 µM and the TGI was above 100 µM.
For `Cn1c(=O)c2nc3sc4c(n3c2n(C)c1=O)C(=O)c1ccccc1C4=O`, the TGI was above 74.2 µM.
On to `COc1ccc(/C=C2\CCC/C(=C\c3ccc(OC)c(OC)c3)C2=O)cc1OC`, for which the GI50 was 1.16 µM and the TGI is above 32.5 µM.
In turn, `N#CC1CC(c2ccccc2)Nc2cc(Cl)ccc2N1` (stereo not given) gave a TGI above 100 µM.

In the next test the test system is MALME-3M melanoma. As to the kind of experiment: NCI anticancer screen, dose series, 48 h.
In turn, `CCc1cccc(CC)c1NC(=O)/C(Cl)=C(/Cl)C(=O)O` had a TGI of 36.7 µM.
As to `Cc1cc(Br)c(NC(=O)c2c(-c3c(Cl)cccc3Cl)noc2C)c(Br)c1`, the GI50 was above 100 µM and the TGI is above 100 µM.
For the compound `OCCCCC#Cc1ccccc1C#Cc1cccc(C(F)(F)F)c1`, the GI50 is 26 µM and the TGI was 48.5 µM.
`CC(C)Cc1ccc(C(C)/C=C2\CCC(CN(C)C)C2=O)cc1` (stereo not given) had a TGI of 32.2 µM.
As to `COc1cc(/C=C/c2csnn2)cc(OC)c1OC`, the TGI is above 100 µM.
For the compound `CC(C)[C@@H]1CC[C@]2(CO2)[C@@H]2C(=O)OCC(C(=O)O)=C[C@H]21`, the GI50 is 0.305 µM and the TGI is 5.31 µM.
Take `Cn1c(=O)c2nc3sc4c(n3c2n(C)c1=O)C(=O)c1ccccc1C4=O`: the TGI was above 100 µM.
As for `COc1ccc(/C=C2\CCC/C(=C\c3ccc(OC)c(OC)c3)C2=O)cc1OC`, the GI50 is 8.51 µM and the TGI was above 32.5 µM.
For the compound `N#CC1CC(c2ccccc2)Nc2cc(Cl)ccc2N1` (stereo not given), the TGI was above 100 µM.

The test system of the next test is SF-295 CNS. Description: NCI anticancer screen, dose series, 48 h.
Compound `CCc1cccc(CC)c1NC(=O)/C(Cl)=C(/Cl)C(=O)O` had a TGI above 100 µM.
With `Cc1cc(Br)c(NC(=O)c2c(-c3c(Cl)cccc3Cl)noc2C)c(Br)c1`, the GI50 is 2.15 µM and the TGI was above 100 µM.
For `OCCCCC#Cc1ccccc1C#Cc1cccc(C(F)(F)F)c1` the same measures were 16.5 µM and 30.9 µM.
The compound `CC(C)Cc1ccc(C(C)/C=C2\CCC(CN(C)C)C2=O)cc1` (stereo not given) had a TGI of 28.6 µM.
`COc1cc(/C=C/c2csnn2)cc(OC)c1OC` gave a TGI above 100 µM.
Regarding `CC(C)[C@@H]1CC[C@]2(CO2)[C@@H]2C(=O)OCC(C(=O)O)=C[C@H]21`, the GI50 is 1 µM and the TGI was above 100 µM.
`Cn1c(=O)c2nc3sc4c(n3c2n(C)c1=O)C(=O)c1ccccc1C4=O` had a TGI above 100 µM.
Consider `COc1ccc(/C=C2\CCC/C(=C\c3ccc(OC)c(OC)c3)C2=O)cc1OC`, for which the GI50 was 1.4 µM and the TGI worked out at 21.3 µM.
`N#CC1CC(c2ccccc2)Nc2cc(Cl)ccc2N1` (stereo not given) came in with a TGI above 100 µM.

A further test relates to NCI-H23 lung. As to the kind of experiment: NCI anticancer screen, dose series, 48 h.
For the compound `CCc1cccc(CC)c1NC(=O)/C(Cl)=C(/Cl)C(=O)O`, the TGI worked out at 66.5 µM.
Regarding `Cc1cc(Br)c(NC(=O)c2c(-c3c(Cl)cccc3Cl)noc2C)c(Br)c1`, the GI50 was above 100 µM and the TGI is above 100 µM.
`OCCCCC#Cc1ccccc1C#Cc1cccc(C(F)(F)F)c1`: the GI50 is 16.4 µM and the TGI was 31.5 µM.
`CC(C)Cc1ccc(C(C)/C=C2\CCC(CN(C)C)C2=O)cc1` (stereo not given) showed a TGI of 34 µM.
`COc1cc(/C=C/c2csnn2)cc(OC)c1OC` displayed a TGI above 100 µM.
Regarding `CC(C)[C@@H]1CC[C@]2(CO2)[C@@H]2C(=O)OCC(C(=O)O)=C[C@H]21`, the GI50 is 1.35 µM and the TGI came to 8.41 µM.
Compound `Cn1c(=O)c2nc3sc4c(n3c2n(C)c1=O)C(=O)c1ccccc1C4=O` returned a TGI above 75.1 µM.
As for `COc1ccc(/C=C2\CCC/C(=C\c3ccc(OC)c(OC)c3)C2=O)cc1OC`, the GI50 is 2.91 µM and the TGI is above 32.5 µM.
In the case of `N#CC1CC(c2ccccc2)Nc2cc(Cl)ccc2N1` (stereo not given), the TGI was above 83.7 µM.

For another test, the system named is HCT-15 colon. As to the kind of experiment: NCI anticancer screen, dose series, 48 h.
In turn, `CCc1cccc(CC)c1NC(=O)/C(Cl)=C(/Cl)C(=O)O` gave a TGI of 37.3 µM.
As to `Cc1cc(Br)c(NC(=O)c2c(-c3c(Cl)cccc3Cl)noc2C)c(Br)c1`, the GI50 is above 100 µM and the TGI is above 100 µM.
As for `OCCCCC#Cc1ccccc1C#Cc1cccc(C(F)(F)F)c1`, the GI50 was 16.3 µM and the TGI was found to be 30.8 µM.
As for `CC(C)Cc1ccc(C(C)/C=C2\CCC(CN(C)C)C2=O)cc1` (stereo not given), the TGI turned out to be 23.1 µM.
`COc1cc(/C=C/c2csnn2)cc(OC)c1OC` had a TGI above 100 µM.
For `CC(C)[C@@H]1CC[C@]2(CO2)[C@@H]2C(=O)OCC(C(=O)O)=C[C@H]21`, the GI50 is 0.378 µM and the TGI was above 100 µM.
As for `Cn1c(=O)c2nc3sc4c(n3c2n(C)c1=O)C(=O)c1ccccc1C4=O`, the TGI was above 86.5 µM.
As for `COc1ccc(/C=C2\CCC/C(=C\c3ccc(OC)c(OC)c3)C2=O)cc1OC`, the GI50 was 4.96 µM and the TGI is above 32.5 µM.
For the compound `N#CC1CC(c2ccccc2)Nc2cc(Cl)ccc2N1` (stereo not given), the TGI was above 100 µM.
